Results published in patent US11833185B2, “Anti-neurodegenerative therapeutic, method of manufacture, and use” (UNIVERSITY OF KENTUCKY RESEARCH FOUNDATION, priority 2017, dated 2023).
Where two headings read alike, the source gives them in different places. Where a SMILES comes first, the peptide text is derived from it.

Tests used:
[1] = tested on: striatum levels of DA, DOPAC, HVA, 5-HT, 5-HIAA, and NE; assay: Striatum neurochemistry (RP-HPLC EC) after repeated intranasal administration; assay type: in vivo, normal Fischer 344 rats; conditions: for Turnover ratio 5-H1AA/5-HT / Turnover ratio (HVA + DOPAC)/DA / Turnover ratio DOPAC/DA / Turnover ratio HVA/DA / 5-HIAA / 5-HT / DA / DOPAC / HVA / NE: 5 days a week for 3 weeks, combined left and right striatum, mean; for 5-HIAA / 5-HT / DA / DOPAC / HVA / NE: wet tissue weight
Protocol: (§1) Groups of 12, 3 month old Fischer 344 rats were intranasally dosed 50 microliters (4 single 12.5 microliter administrations, 2 per nare, 5 minutes between each nare administration) of either vehicle, 1.1 mg/mL, or 3.5 mg/mL of AV6403 [Leu-Ala-Pro-Ala-Glu-Asp-NH2] (SEQ ID NO: 1) once a day for 5 days a week, for 3 weeks (5 consecutive days of dosing, 2 off days, repeated total of 3 times). Following day 21, rats were euthanized and brain tissue was recovered and sections removed and weighed for neurochemical analysis by Reverse-Phase High Pressure Liquid Chromatography Electrochemical detection (RP-HPLC EC).
Dopamine [DA], its major metabolites 3,4-Dihydroxy-Phenylacetic Acid (DOPAC) and Homovanillic Acid (HVA), 5-hydroxytryptamine (5-HT, serotonin), its metabolite 5-hydroxyindoleacetic acid (5-HIAA), and norepinephrine (NE) were measured in the striatum and substantia nigra (SN) for each group. In the striatum [TABLE 1], 1.1 mg/mL dosing of AV6403 led to a 20% and 25% reduction of DA and HVA levels [FIG. 1A-FIG. 1C], respectively, resulting in an increase in dopamine turnover (22% [DOPAC/DA] and 16% [[(HVA+DOPAC)/DA]), relative to saline vehicle treated rats [FIG. 2A-FIG. 2B]. […] NE levels were reduced in the striatum with about a 36% reduction for AV6403 1.1 mg/mL dosage versus vehicle [TABLE 1].
as §1, with “1.2” for “1.1”, “3.6” for “3.5”, “AV7624 [Glu-Ala-Pro-Phe-Glu-Asp-NH2]” for “AV6403 [Leu-Ala-Pro-Ala-Glu-Asp-NH2] (SEQ ID NO: 1)”, “RP-HPLC EC.” for “Reverse-Phase High Pressure Liquid Chromatography Electrochemical detection (RP-HPLC EC).”
DA, DOPAC, HVA, 5-HT, 5-HIAA, and NE were measured in the striatum and SN for each group. In the striatum [TABLE 5], 3.6 mg/mL dosing of AV7624 led to an approximate 18%, 39%, and 30% reduction of DA, DOPAC, and HVA levels [FIG. 6A-FIG. 6C], respectively, resulting in an about 18% decrease in dopamine turnover ([DOPAC/DA] and [(HVA+DOPAC)/DA]), relative to saline vehicle treated rats [FIG. 7A-FIG. 7B]. […] NE levels were reduced in the striatum in a dose dependent manner, with about a 32% reduction for the AV7624 3.6 mg/mL dosage versus vehicle [TABLE 5]

[2] = tested on: substantia nigra levels of DA, DOPAC, HVA, 5-HT, 5-HIAA, and NE; assay: Substantia nigra neurochemistry (RP-HPLC EC) after repeated intranasal administration; assay type: in vivo, normal Fischer 344 rats; conditions: for Turnover ratio 5-HIAA/5-HT / Turnover ratio (HVA + DOPAC)/DA / Turnover ratio DOPAC/DA / Turnover ratio HVA/DA / 5-HIAA / 5-HT / DA / DOPAC / HVA / NE: 5 days a week for 3 weeks, combined left and right substantia nigra, mean; for 5-HIAA / 5-HT / DA / DOPAC / HVA / NE: wet tissue weight
Protocol: as §1
In the SN [TABLE 3], treatment of AV6403 led to about a 13% increase in DOPAC and a 11% reduction of HVA, depending on the dosage, [FIG. 4A-FIG. 4C] resulting in an increase in dopamine turnover (20% [DOPAC/DA] for 3.5 mg/mL dosage; 23% [(HVA+DOPAC)/DA] for 1.1 mg/mL) relative to saline vehicle treated rats [FIG. 5A-FIG. 5B]. Treatment with 1.1 mg/mL AV6403 decreased 5-HT by 10% in the SN, resulting in a 16% increase in serotonin turnover [5-HIAA/5-HT] [TABLE 4]. The higher dosage (3.5 mg/mL AV6403) increased NE levels in the SN by about 23% versus vehicle treated rats, respectively [TABLE 3].
as §1, with “1.2” for “1.1”, “3.6” for “3.5”, “AV7624 [Glu-Ala-Pro-Phe-Glu-Asp-NH2]” for “AV6403 [Leu-Ala-Pro-Ala-Glu-Asp-NH2] (SEQ ID NO: 1)”, “RP-HPLC EC.” for “Reverse-Phase High Pressure Liquid Chromatography Electrochemical detection (RP-HPLC EC).”
In the SN [TABLE 7], treatment with 3.6 mg/mL AV7624 led to about a 23%, 22%, and a 6% decrease in DA, DOPAC, and HVA [FIG. 9A-FIG. 9C], relative to saline vehicle treated rats, with minor effects on dopamine turnover [FIG. 10A-FIG. 10B]. Treatment with 3.6 mg/mL AV7624 decreased 5-HT by 20% and 5-HIAA by about 18% in the SN [TABLE 7], resulting in a minor effect on serotonin turnover [TABLE 8]. NE levels in the SN were decreased (17% and 13%) by both dosages (1.2 mg/mL and 3.6 mg/mL) versus vehicle treated rats, respectively [TABLE 7].

[3] = Plasma levels by LC-MS/MS after subcutaneous administration; assay type: in vivo, rat
[4] = rat, in vivo, sc, 100 mg/kg
MN9D neuronal cells [5] = assay: LIVE/DEAD and JC-1 assays for toxicity and loss of mitochondrial potentials; conditions: 100 nM, 1 and 3 hours post treatment
Protocol: (§2) Testing involved permutations of size and diversifying amino acid sequence at each residue position. Sequence design began with Proline-Proline-Glutamate-Alanine-Proline-Alanine-Glutamate-Aspartate-Arginine-Serine-Leucine-NH2. […] These properties were tested using the dopaminergic MN9D neuronal cell line. Each candidate peptide sequence was dissolved in citrate buffer and added to MN9D cells (Choi et al., 1992) that were cultured in Dulbecco's Modified Eagle's Medium [DMEM (containing pyridoxol HCl); Sigma, St. Louis, MO] supplemented with 10% Fetal Bovine serum (HyClone, Logan, UT), 50 U/ml penicillin and streptomycin to a final 100 nM concentration. Using LIVE/DEAD and JC-1 assays in MN9D neuronal cells, individual library sequences were measured for toxicity and loss of mitochondrial potentials at 1 and 3 hours post treatment. […] The remaining sequences were then tested for their ability to provide protection against neurotoxins rotenone, 1-methyl-4-phenylpyridinium (MPP+), and trichloromethyl-1,2,3,4-tetrahydro-β-carboline (TaClo).

MN9D neuronal cells [6] = assay: Protection of mitochondrial potentials against rotenone, MPP+ and TaClo-induced cytotoxicity; assay type: cell-based; conditions: 100 nM pretreatment, 1, 3, 12, 24 hours
Protocol: as §2

[7] = rat, in vivo, sc
[8] = 1.1 mg/mL intranasal, striatum, relative to saline vehicle treated rats
[9] = 1.1 mg/mL repeated intranasal, striatum, relative to saline treated rats
[10] = SN, depending on the dosage, relative to saline vehicle treated rats

Which results are given for `CC(C)C[C@H](N)C(=O)N[C@@H](C)C(=O)N1CCC[C@H]1C(=O)N[C@@H](C)C(=O)N[C@@H](CCC(=O)O)C(=O)N[C@@H](CC(=O)O)C(N)=O` [AV6403, Leu-Ala-Pro-Ala-Glu-Asp-NH2] (H-LAPAED-NH2; N-terminus assumed)?
increase in dopamine turnover [(HVA+DOPAC)/DA] [1, 8]: 16%; increase in dopamine turnover [DOPAC/DA] [1, 8]: 22%; reduction of DA levels [1, 8]: 20%; reduction of HVA levels [1, 8]: 25%; reduction of NE levels ([1]; 1.1 mg/mL intranasal, striatum, versus vehicle): ~36%; increase in turnover [5-HIAA/5-HT] [1, 9]: 19%; reduction of 5-HIAA [1, 9]: ~19%; reduction of 5-HT [1, 9]: ~32%; Turnover ratio 5-H1AA/5-HT ([1]; 1.1 mg/ml intranasal): 1.28; Turnover ratio (HVA + DOPAC)/DA ([1]; 1.1 mg/ml intranasal): 0.36; Turnover ratio DOPAC/DA ([1]; 1.1 mg/ml intranasal): 0.28; Turnover ratio HVA/DA ([1]; 1.1 mg/ml intranasal): 0.08; 5-HIAA ([1]; 1.1 mg/ml intranasal): 326 ng/g; 5-HT ([1]; 1.1 mg/ml intranasal): 257 ng/g; DA ([1]; 1.1 mg/ml intranasal): 9425 ng/g; DOPAC ([1]; 1.1 mg/ml intranasal): 2618 ng/g; HVA ([1]; 1.1 mg/ml intranasal): 699 ng/g; NE ([1]; 1.1 mg/ml intranasal): 45 ng/g; changes in DA turnover ([1]; 3.5 mg/mL intranasal, striatum): minor changes; increase of striatal DA levels ([1]; 3.5 mg/mL intranasal, striatum): 8%; increase of striatal DOPAC levels ([1]; 3.5 mg/mL intranasal, striatum): 11%; Turnover ratio 5-H1AA/5-HT ([1]; 3.5 mg/ml intranasal): 1.11; Turnover ratio (HVA + DOPAC)/DA ([1]; 3.5 mg/ml intranasal): 0.31; Turnover ratio DOPAC/DA ([1]; 3.5 mg/ml intranasal): 0.23; Turnover ratio HVA/DA ([1]; 3.5 mg/ml intranasal): 0.08; 5-HIAA ([1]; 3.5 mg/ml intranasal): 437 ng/g; 5-HT ([1]; 3.5 mg/ml intranasal): 393 ng/g; DA ([1]; 3.5 mg/ml intranasal): 12475 ng/g; DOPAC ([1]; 3.5 mg/ml intranasal): 2922 ng/g; HVA ([1]; 3.5 mg/ml intranasal): 935 ng/g; NE ([1]; 3.5 mg/ml intranasal): 66 ng/g; change of 5-HT, 5-HIAA and turnover ([1]; higher dosage (3.5 mg/mL) intranasal, striatum, relative to saline treated rats): small increases; decrease of 5-HT ([2]; 1.1 mg/mL intranasal, SN): 10%; increase in serotonin turnover [5-HIAA/5-HT] ([2]; 1.1 mg/mL intranasal, SN): 16%; increase in dopamine turnover [(HVA+DOPAC)/DA] ([2]; 1.1 mg/mL intranasal, SN, relative to saline vehicle treated rats): 23%; Turnover ratio 5-HIAA/5-HT ([2]; 1.1 mg/ml intranasal): 0.58; Turnover ratio (HVA + DOPAC)/DA ([2]; 1.1 mg/ml intranasal): 0.37; Turnover ratio DOPAC/DA ([2]; 1.1 mg/ml intranasal): 0.22; Turnover ratio HVA/DA ([2]; 1.1 mg/ml intranasal): 0.15; 5-HIAA ([2]; 1.1 mg/ml intranasal): 552 ng/g; 5-HT ([2]; 1.1 mg/ml intranasal): 1014 ng/g; DA ([2]; 1.1 mg/ml intranasal): 1122 ng/g; DOPAC ([2]; 1.1 mg/ml intranasal): 232 ng/g; HVA ([2]; 1.1 mg/ml intranasal): 102 ng/g; NE ([2]; 1.1 mg/ml intranasal): 554 ng/g; increase in dopamine turnover [DOPAC/DA] ([2]; 3.5 mg/mL intranasal, SN, relative to saline vehicle treated rats): 20%; increase of NE levels ([2]; 3.5 mg/mL intranasal, SN, versus vehicle treated rats): about 23%; Turnover ratio 5-HIAA/5-HT ([2]; 3.5 mg/ml intranasal): 0.54; Turnover ratio (HVA + DOPAC)/DA ([2]; 3.5 mg/ml intranasal): 0.34; Turnover ratio DOPAC/DA ([2]; 3.5 mg/ml intranasal): 0.24; Turnover ratio HVA/DA ([2]; 3.5 mg/ml intranasal): 0.11; 5-HIAA ([2]; 3.5 mg/ml intranasal): 546 ng/g; 5-HT ([2]; 3.5 mg/ml intranasal): 1050 ng/g; DA ([2]; 3.5 mg/ml intranasal): 1096 ng/g; DOPAC ([2]; 3.5 mg/ml intranasal): 253 ng/g; HVA ([2]; 3.5 mg/ml intranasal): 113 ng/g; NE ([2]; 3.5 mg/ml intranasal): 644 ng/g; increase in DOPAC [2, 10]: ~13%; reduction of HVA [2, 10]: 11%; plasma lifetime as compared to the extracellular brain levels ([3]; 30 and 100 mg/kg s.c.): longer lifetime; time of maximum plasma levels post administration ([3]; 30 and 100 mg/kg s.c.): 20 to 40 min; Cmax ([3]; rat, plasma, sc, 30 mg/kg s.c., read-out: maximum plasma levels): 3500 ng/mL; Cmax ([3]; rat, plasma, sc, 100 mg/kg s.c., read-out: maximum plasma levels): 6000 ng/mL; half-life [4]: 50 to 60 min

Which “total lifetime in plasma” value ([3]; 100 mg/kg s.c. in saline) does the source give for `C[C@H](NC(=O)[C@@H]1CCCN1C(=O)[C@H](C)NC(=O)[C@@H](N)CCC(=O)O)C(=O)N[C@@H](CCC(=O)O)C(N)=O` [AV2157, Glutamate-Alanine-Proline-Alanine-Glutamate-NH2] (H-EAPAE-NH2; N-terminus assumed) here?
Its value is roughly 120 min.

What about the Cmax ([3]; rat, plasma, sc, 100 mg/kg s.c. in saline, read-out: maximum plasma level) of the same compound?
Its Cmax is 1250 ng/mL.

What about the Tmax ([3]; rat, plasma, sc, 100 mg/kg s.c. in saline, read-out: time of maximum plasma level post administration (converted)) of the same compound?
Its Tmax is 20 min.

What about the toxicity (MN9D neuronal cells [5]) of the same compound?
The toxicity was “low toxicity”.

And the “protection against neurotoxins (rotenone, MPP+, TaClo)” value (MN9D neuronal cells [6])?
Its value is “protection against neurotoxin exposure at all time points measured”.

What about the half-life [4] of the same compound?
The half-life was 50 to 60 min.

And the “improved CNS bioavailability compared to AV6403” value [7]?
Its value is “over 10 times”.
